Assay results published in US20240409536A1, “COMPOUNDS AND METHODS FOR MODULATING SPLICING” (REMIX THERAPEUTICS INC., priority 2021, published 2024).
Like-named read-outs stand apart in the source and are kept apart here.

Experiments:
SMN2 mRNA = test: Gene panel canonical junction qPCR assay, SMN2 CJ mRNA decrease; format: cell-based, human; settings: decrease in CJ mRNA levels, read-out: SMN2 IC50
Protocol: (§1) Compounds described herein were used to modulate RNA transcript abundance in cells. The expression of a target mRNA was measured by detecting the formation of an exon-exon junction in the canonical transcript (CJ). A compound mediated exon-inclusion event was detected by observing an increase in formation of a new junction with an alternative exon (AJ). Real-time qPCR assays were used to detect these splicing switches and interrogate the potency of various compounds towards different target genes. A high-throughput real time quantitative PCR (RT-qPCR) assay was developed to measure these two isoforms of the mRNA (CJ and AJ) for exemplary genes, such as HTT, SMN2, and MYB, together with a control housekeeping gene, GAPDH or GUSB or PPIA, used for normalization. Briefly, the A673 or K562 cell line was treated with various compounds described herein (e.g., compounds of Formula (I), (I), or (III)). After treatment, the levels of the HTT, MYB, or SMN2 mRNA targets were determined from each sample of cell lysate by cDNA synthesis followed by qPCR.
(§2) The data analysis was performed by first determining the ΔCt vs the housekeeper gene. This ΔCt was then normalized against the DMSO control (ΔΔCt) and converted to RQ (relative quantification) using the 2^(−ΔΔCt) equation. The RQ were then converted to a percentage response by arbitrarily setting an assay window of 3.5 and 4.0 ΔCt for HTT-CJ and MYB-CJ respectively and an assay window of 9 and 3 ΔCt for HTT-AJ and MYB-AJ in 96 well format (50,000 K562 cells/well and 15,000 A673 cells per well) and an assay window of 3 and 4 ΔCt for HTT-CJ and MYB-CJ respectively and an assay window of 5 and 3 ΔCt for HTT-AJ and MYB-AJ respectively in 384 well format (8,000 K562 cells/well example). […] The percentage response was then fitted to the 4 parametric logistic equation to evaluate the concentration dependence of compound treatment. The increase in AJ mRNA is reported as AC50 (compound concentration having […] in AJ increase) while the decrease in CJ mRNA levels is reported as IC50 (compound concentration having 50) response in CJ decrease).
(§3) Additional studies were carried out for a larger panel of genes using the protocol provided above. The junction between flanking upstream and downstream exons was used to design canonical junction qPCR assays. At least one of the forward primer, reverse primer or the CY5-labeled 5′ nuclease probe (with 3′ quencher such as ZEN/Iowa Black FQ) was designed to overlap with the exon junction to capture the CJ mRNA transcript. BLAST was used to confirm the specificity of the probeset and parameters such as melting temperature, GC content, amplicon size, and primer dimer formation are considered during their design. Data for the decrease in CJ mRNA levels for four exemplary genes (HTT, SMN2, MYB, and Target C) analyzed in this panel are reported as IC50 (compound concentration having […] in CJ decrease).
(§4) A summary of the results from the panel is illustrated in Tables 5A and 51B, wherein “A” represents an IC50 of less than 100 nM; “B” represents an IC50 of between 100 nM and 1 μM; and “C” represents an IC50 of between 1 μM and 10 μM; and “D” represents an IC50 of greater than 10 μM.

Target C mRNA = test: Gene panel canonical junction qPCR assay, Target C CJ mRNA decrease; format: cell-based; settings: Homo sapiens, decrease in CJ mRNA levels, read-out: Target C IC50
Protocol: as §1, §2, §3, §4

HTT mRNA = test: Gene panel canonical junction qPCR assay, HTT CJ mRNA decrease; format: cell-based, human; settings: Homo sapiens, decrease in CJ mRNA levels, read-out: HTT IC50
Protocol: as §1, §2, §3, §4

MYB mRNA = test: Gene panel canonical junction qPCR assay, MYB CJ mRNA decrease; format: cell-based, human; settings: decrease in CJ mRNA levels, read-out: MYB IC50
Protocol: as §1, §2, §3, §4

With `Cc1cn2cc(NC(=O)c3sc([C@@H]4CCN[C@@H](C)C4)cc3F)cc(F)c2n1` [Compound 591] the IC50 (SMN2 mRNA; Homo sapiens) was 1 to 10 µM, the IC50 (Target C mRNA) was 0.1 to 1 µM and the IC50 (HTT mRNA) was 0.1 to 1 µM. It also gave an IC50 (MYB mRNA; Homo sapiens) of under 0.1 µM.
`Cc1cn2cc(NC(=O)c3sc([C@H]4CCN[C@H](C)C4)cc3F)cc(F)c2n1` [Compound 592] was tested, and the IC50 (SMN2 mRNA; Homo sapiens) was 1 to 10 µM, the IC50 (Target C mRNA) was 1 to 10 µM and the IC50 (HTT mRNA) was 0.1 to 1 µM. The IC50 (MYB mRNA; Homo sapiens) was 0.1 to 1 µM.
For `Cc1cn2cc(NC(=O)c3sc(N4CCN(C)C(C)C4)cc3F)cc(F)c2n1` (centres unmarked) [Compound 602], the IC50 (SMN2 mRNA; Homo sapiens) was over 10 µM, the IC50 (Target C mRNA) was over 10 µM and the IC50 (HTT mRNA) was over 10 µM. The IC50 (MYB mRNA; Homo sapiens) was 0.1 to 1 µM.
For `Cc1cn2cc(NC(=O)c3sc(N4CCNC(C)(C)C4)cc3F)cc(F)c2n1` [Compound 604], the IC50 (SMN2 mRNA; Homo sapiens) was over 10 µM, the IC50 (Target C mRNA) was over 10 µM and the IC50 (HTT mRNA) was over 10 µM. For the same molecule, the IC50 (MYB mRNA; Homo sapiens) was 1 to 10 µM.
Work on `Cc1cn2cc(NC(=O)c3sc(N4CC(C)(C)NC(C)(C)C4)cc3F)cc(F)c2n1` [Compound 606] yielded an IC50 (SMN2 mRNA; Homo sapiens) of over 10 µM, an IC50 (Target C mRNA) of 1 to 10 µM and an IC50 (HTT mRNA) of 1 to 10 µM. For the same molecule, the IC50 (MYB mRNA; Homo sapiens) was 0.1 to 1 µM.
Molecule `Cc1cn2cc(NC(=O)c3sc(N4CC5(CNC5)C4)cc3F)cc(F)c2n1` [Compound 607] has an IC50 (SMN2 mRNA; Homo sapiens) of over 10 µM, an IC50 (Target C mRNA) of 1 to 10 µM and an IC50 (HTT mRNA) of over 10 µM. It also gave an IC50 (MYB mRNA; Homo sapiens) of 1 to 10 µM.
Molecule `Cc1cn2cc(NC(=O)c3sc(N4CC5(CN(C)C5)C4)cc3F)cc(F)c2n1` [Compound 608] has an IC50 (SMN2 mRNA; Homo sapiens) of over 10 µM, an IC50 (Target C mRNA) of over 10 µM and an IC50 (HTT mRNA) of over 10 µM. For the same molecule, the IC50 (MYB mRNA; Homo sapiens) was 1 to 10 µM.
In the case of `Cc1cn2cc(NC(=O)c3sc(N4CCC(N5CCCC5)C4)cc3F)cc(F)c2n1` (centres unmarked) [Compound 609], the IC50 (SMN2 mRNA; Homo sapiens) is reported as 1 to 10 µM, the IC50 (Target C mRNA) is reported as 1 to 10 µM and the IC50 (HTT mRNA) is reported as 1 to 10 µM. For the same molecule, the IC50 (MYB mRNA; Homo sapiens) was 0.1 to 1 µM.
`Cc1cn2cc(NC(=O)c3sc(N4CCC(N(C)C)C4)cc3F)cc(F)c2n1` (centres unmarked) [Compound 611] showed an IC50 (SMN2 mRNA; Homo sapiens) of over 10 µM, an IC50 (Target C mRNA) of 1 to 10 µM and an IC50 (HTT mRNA) of over 10 µM. For the same molecule, the IC50 (MYB mRNA; Homo sapiens) was 0.1 to 1 µM.
For `Cc1cn2cc(NC(=O)c3sc(N4CCN5CCCC5C4)cc3F)cc(F)c2n1` (centres unmarked) [Compound 612], the IC50 (SMN2 mRNA; Homo sapiens) was over 10 µM, the IC50 (Target C mRNA) was 1 to 10 µM and the IC50 (HTT mRNA) was over 10 µM. For the same molecule, the IC50 (MYB mRNA; Homo sapiens) was 1 to 10 µM.
With `Cc1cn2cc(NC(=O)c3sc(N4CCC(N(C)C)CC4)cc3F)cc(F)c2n1` [Compound 613] the IC50 (SMN2 mRNA; Homo sapiens) was over 10 µM, the IC50 (Target C mRNA) was over 10 µM and the IC50 (HTT mRNA) was 1 to 10 µM. For the same molecule, the IC50 (MYB mRNA; Homo sapiens) was 0.1 to 1 µM.
Molecule `Cc1cn2cc(NC(=O)c3sc(N4CCC(NC(C)(C)C)CC4)cc3F)cc(F)c2n1` [Compound 614] has an IC50 (SMN2 mRNA; Homo sapiens) of over 10 µM, an IC50 (Target C mRNA) of over 10 µM and an IC50 (HTT mRNA) of over 10 µM. It also gave an IC50 (MYB mRNA; Homo sapiens) of 1 to 10 µM.
With `Cc1cn2cc(NC(=O)c3sc(C4CCNCC4)cc3F)cc(F)c2n1` [Compound 617] the IC50 (SMN2 mRNA) was 1 to 10 µM, the IC50 (Target C mRNA) was 1 to 10 µM and the IC50 (HTT mRNA) was 1 to 10 µM. For the same molecule, the IC50 (MYB mRNA) was 1 to 10 µM.
Molecule `Cc1cn2cc(NC(=O)c3sc(C4CCN(C)CC4)cc3F)cc(F)c2n1` [Compound 618] has an IC50 (SMN2 mRNA; Homo sapiens) of 1 to 10 µM, an IC50 (Target C mRNA) of 1 to 10 µM and an IC50 (HTT mRNA) of over 10 µM. For the same molecule, the IC50 (MYB mRNA; Homo sapiens) was 1 to 10 µM.
In the case of `CCN1CCC(c2cc(F)c(C(=O)Nc3cc(F)c4nc(C)cn4c3)s2)CC1` [Compound 619], the IC50 (SMN2 mRNA; Homo sapiens) is reported as 0.1 to 1 µM, the IC50 (Target C mRNA) is reported as 0.1 to 1 µM and the IC50 (HTT mRNA) is reported as 0.1 to 1 µM. It also gave an IC50 (MYB mRNA; Homo sapiens) of under 0.1 µM.
Molecule `Cc1cn2cc(NC(=O)c3sc(C4CC(C)(C)NC(C)(C)C4)cc3F)cc(F)c2n1` [Compound 621] has an IC50 (SMN2 mRNA; Homo sapiens) of 1 to 10 µM, an IC50 (Target C mRNA) of 1 to 10 µM and an IC50 (HTT mRNA) of 0.1 to 1 µM. For the same molecule, the IC50 (MYB mRNA; Homo sapiens) was 0.1 to 1 µM.
Molecule `Cc1cn2cc(NC(=O)c3sc(N(C)C4CC(C)(C)NC(C)(C)C4)cc3F)cc(F)c2n1` [Compound 622] has an IC50 (SMN2 mRNA; Homo sapiens) of 1 to 10 µM, an IC50 (Target C mRNA) of 0.1 to 1 µM and an IC50 (HTT mRNA) of 0.1 to 1 µM. It also gave an IC50 (MYB mRNA; Homo sapiens) of under 0.1 µM.
